{"source": "ChEMBL document CHEMBL4308873", "about": "“Synthesis and biological evaluation of Ginsenoside Compound K analogues as a novel class of anti-asthmatic agents” (2019)", "format_in_all_cases": "functional", "key": {"Mus musculus [1]": {"system": "Mus musculus", "test": "Anti-asthmatic activity in ovalbumin-induced asthmatic BALB/c mouse model assessed as IgE level in plasma at 20 mg/kg, po co-administered with ovalbumin from day 21 to 28 of experiment period by ELISA (reference value: 2544.05 +/- 229.07 ng/ml)"}, "Mus musculus [2]": {"system": "Mus musculus", "test": "(§1) Anti-asthmatic activity in ovalbumin-induced asthmatic BALB/c mouse model assessed as 6.25 mg/ml methacholine-induced airway resistance at 20 mg/kg, po co-administered with ovalbumin from day 21 to 28 of experiment period measured post last dose by plethysmography (reference value: 2.44 +/- 0.87 cmH2O/ml)"}, "Mus musculus [3]": {"system": "Mus musculus", "test": "as §1, with “12.5” for “6.25”, “6.03” for “2.44”, “1.02” for “0.87”"}, "Mus musculus [4]": {"system": "Mus musculus", "test": "as §1, with “25” for “6.25”, “14.03” for “2.44”, “1.15” for “0.87”"}, "Mus musculus [5]": {"system": "Mus musculus", "test": "as §1, with “50” for “6.25”, “64.33” for “2.44”, “3.41” for “0.87”"}, "Mus musculus [6]": {"system": "Mus musculus", "test": "as §1, with “100” for “6.25”, “84.5” for “2.44”, “2.41” for “0.87”"}, "Mus musculus [7]": {"system": "Mus musculus", "test": "Anti-asthmatic activity in ovalbumin-induced asthmatic BALB/c mouse model assessed as IgE level in plasma at 0.6 mg/kg, po co-administered with ovalbumin from day 21 to 28 of experiment period by ELISA (reference value: 2544.05 +/- 229.07 ng/ml)"}, "Mus musculus [8]": {"system": "Mus musculus", "test": "as §1, with “0.6” for “20”"}, "Mus musculus [9]": {"system": "Mus musculus", "test": "as §1, with “12.5” for “6.25”, “0.6” for “20”, “6.03” for “2.44”, “1.02” for “0.87”"}, "Mus musculus [10]": {"system": "Mus musculus", "test": "as §1, with “25” for “6.25”, “0.6” for “20”, “14.03” for “2.44”, “1.15” for “0.87”"}, "Mus musculus [11]": {"system": "Mus musculus", "test": "as §1, with “50” for “6.25”, “0.6” for “20”, “64.33” for “2.44”, “3.41” for “0.87”"}, "Mus musculus [12]": {"system": "Mus musculus", "test": "as §1, with “100” for “6.25”, “0.6” for “20”, “84.5” for “2.44”, “2.41” for “0.87”"}}, "data": [{"smiles": "CC(C)=CCC[C@](C)(O[C@@H]1O[C@H](CO)[C@@H](O)[C@H](O)[C@H]1O)[C@H]1CC[C@]2(C)[C@@H]1[C@H](O)C[C@@H]1[C@@]3(C)CC[C@H](O)C(C)(C)[C@@H]3CC[C@]12C", "values": [{"measurement": "Activity", "setting": "Mus musculus [1]", "result": 1501.85, "unit": "ng/mL"}, {"measurement": "Activity", "setting": "Mus musculus [2]", "result": 2.47, "unit": "cmH2O/ml"}, {"measurement": "Activity", "setting": "Mus musculus [3]", "result": 4.14, "unit": "cmH2O/ml"}, {"measurement": "Activity", "setting": "Mus musculus [4]", "result": 4.79, "unit": "cmH2O/ml"}, {"measurement": "Activity", "setting": "Mus musculus [5]", "result": 5.04, "unit": "cmH2O/ml"}, {"measurement": "Activity", "setting": "Mus musculus [6]", "result": 6.21, "unit": "cmH2O/ml"}]}, {"smiles": "CC(C)=CCC[C@](C)(O[C@H]1O[C@@H](C)[C@H](O)[C@@H](O)[C@H]1O)[C@H]1CC[C@]2(C)[C@@H]1C(=O)C[C@@H]1[C@@]3(C)CC[C@H](O)C(C)(C)[C@@H]3CC[C@]12C", "values": [{"measurement": "Activity", "setting": "Mus musculus [1]", "result": 2706.85, "unit": "ng/mL"}]}, {"smiles": "CC(C)=CCC[C@](C)(O[C@@H]1O[C@H](CO)[C@H](O)[C@H](O)[C@H]1O)[C@H]1CC[C@]2(C)[C@@H]1C(=O)C[C@@H]1[C@@]3(C)CC[C@H](O)C(C)(C)[C@@H]3CC[C@]12C", "values": [{"measurement": "Activity", "setting": "Mus musculus [1]", "result": 975.82, "unit": "ng/mL"}, {"measurement": "Activity", "setting": "Mus musculus [2]", "result": 2.04, "unit": "cmH2O/ml"}, {"measurement": "Activity", "setting": "Mus musculus [3]", "result": 2.78, "unit": "cmH2O/ml"}, {"measurement": "Activity", "setting": "Mus musculus [4]", "result": 3.28, "unit": "cmH2O/ml"}, {"measurement": "Activity", "setting": "Mus musculus [5]", "result": 4.81, "unit": "cmH2O/ml"}, {"measurement": "Activity", "setting": "Mus musculus [6]", "result": 6.35, "unit": "cmH2O/ml"}]}, {"smiles": "CC(C)=CCC[C@](C)(O[C@@H]1O[C@H](CO)[C@@H](O)[C@H](O)[C@H]1O)[C@H]1CC[C@]2(C)[C@@H]1/C(=N/O)C[C@@H]1[C@@]3(C)CC/C(=N\\O)C(C)(C)[C@@H]3CC[C@]12C", "values": [{"measurement": "Activity", "setting": "Mus musculus [1]", "result": 1258.27, "unit": "ng/mL"}, {"measurement": "Activity", "setting": "Mus musculus [2]", "result": 3.4, "unit": "cmH2O/ml"}, {"measurement": "Activity", "setting": "Mus musculus [3]", "result": 5.06, "unit": "cmH2O/ml"}, {"measurement": "Activity", "setting": "Mus musculus [4]", "result": 5.72, "unit": "cmH2O/ml"}, {"measurement": "Activity", "setting": "Mus musculus [5]", "result": 4.93, "unit": "cmH2O/ml"}, {"measurement": "Activity", "setting": "Mus musculus [6]", "result": 5.73, "unit": "cmH2O/ml"}]}, {"smiles": "CC(C)(O)CCC[C@](C)(O[C@@H]1O[C@H](CO)[C@@H](O)[C@H](O)[C@H]1O)[C@H]1CC[C@]2(C)[C@@H]1C(=O)C[C@@H]1[C@@]3(C)CC[C@H](O)C(C)(C)[C@@H]3CC[C@]12C", "values": [{"measurement": "Activity", "setting": "Mus musculus [1]", "result": 2027.95, "unit": "ng/mL"}]}, {"smiles": "CO[C@H]1CC[C@]2(C)[C@H]3CC(=O)[C@@H]4[C@@H]([C@](C)(CCC=C(C)C)O[C@@H]5O[C@H](CO)[C@@H](O)[C@H](O)[C@H]5O)CC[C@@]4(C)[C@]3(C)CC[C@H]2C1(C)C", "values": [{"measurement": "Activity", "setting": "Mus musculus [1]", "result": 3593.38, "unit": "ng/mL"}]}, {"smiles": "CC(C)=CCC[C@](C)(O[C@@H]1OC[C@@H](O)[C@H](O)[C@H]1O)[C@H]1CC[C@]2(C)[C@@H]1C(=O)C[C@@H]1[C@@]3(C)CC[C@H](O)C(C)(C)[C@@H]3CC[C@]12C", "values": [{"measurement": "Activity", "setting": "Mus musculus [1]", "result": 2439.3, "unit": "ng/mL"}]}, {"smiles": "CC(=O)O[C@H]1CC[C@]2(C)[C@H]3CC(=O)[C@@H]4[C@@H]([C@](C)(CCC=C(C)C)O[C@@H]5O[C@H](CO)[C@@H](O)[C@H](O)[C@H]5O)CC[C@@]4(C)[C@]3(C)CC[C@H]2C1(C)C", "values": [{"measurement": "Activity", "setting": "Mus musculus [1]", "result": 3224.5, "unit": "ng/mL"}]}, {"smiles": "CO/N=C1\\CC[C@]2(C)[C@H]3CC(=O)[C@@H]4[C@@H]([C@](C)(CCC=C(C)C)O[C@@H]5O[C@H](CO)[C@@H](O)[C@H](O)[C@H]5O)CC[C@@]4(C)[C@]3(C)CC[C@H]2C1(C)C", "values": [{"measurement": "Activity", "setting": "Mus musculus [1]", "result": 2023.54, "unit": "ng/mL"}]}, {"smiles": "CC(C)CCC[C@](C)(O[C@@H]1O[C@H](CO)[C@@H](O)[C@H](O)[C@H]1O)[C@H]1CC[C@]2(C)[C@@H]1C(=O)C[C@@H]1[C@@]3(C)CC[C@H](O)C(C)(C)[C@@H]3CC[C@]12C", "values": [{"measurement": "Activity", "setting": "Mus musculus [1]", "result": 1976.31, "unit": "ng/mL"}]}, {"smiles": "CC(C)=CCC[C@](C)(O[C@@H]1O[C@H](CO)[C@@H](O)[C@H](O)[C@H]1O)[C@H]1CC[C@]2(C)[C@@H]1C(=O)C[C@@H]1[C@@]3(C)CCC(=O)C(C)(C)[C@@H]3CC[C@]12C", "values": [{"measurement": "Activity", "setting": "Mus musculus [1]", "result": 2439.3, "unit": "ng/mL"}]}, {"smiles": "CC(C)=CCC[C@](C)(O[C@@H]1O[C@H](CO)[C@@H](O)[C@H](O)[C@H]1O)[C@H]1CC[C@]2(C)[C@@H]1C(=O)C[C@@H]1[C@@]3(C)CC/C(=N\\O)C(C)(C)[C@@H]3CC[C@]12C", "values": [{"measurement": "Activity", "setting": "Mus musculus [1]", "result": 1968.31, "unit": "ng/mL"}]}, {"smiles": "CC(C)=CCC[C@](C)(O[C@@H]1O[C@H](CO)[C@@H](O)[C@H](O)[C@@H]1O)[C@H]1CC[C@]2(C)[C@@H]1C(=O)C[C@@H]1[C@@]3(C)CC[C@H](O)C(C)(C)[C@@H]3CC[C@]12C", "values": [{"measurement": "Activity", "setting": "Mus musculus [1]", "result": 1136.96, "unit": "ng/mL"}, {"measurement": "Activity", "setting": "Mus musculus [2]", "result": 2.83, "unit": "cmH2O/ml"}, {"measurement": "Activity", "setting": "Mus musculus [3]", "result": 3.54, "unit": "cmH2O/ml"}, {"measurement": "Activity", "setting": "Mus musculus [4]", "result": 3.58, "unit": "cmH2O/ml"}, {"measurement": "Activity", "setting": "Mus musculus [5]", "result": 4.94, "unit": "cmH2O/ml"}, {"measurement": "Activity", "setting": "Mus musculus [6]", "result": 5.97, "unit": "cmH2O/ml"}]}, {"smiles": "CC(C)=CCC[C@](C)(O[C@@H]1O[C@H](CO)[C@@H](O)[C@H](O)[C@H]1O)[C@H]1CC[C@]2(C)[C@@H]1C(=O)C[C@@H]1[C@@]3(C)CC=CC(C)(C)[C@@H]3CC[C@]12C", "values": [{"measurement": "Activity", "setting": "Mus musculus [1]", "result": 1191.08, "unit": "ng/mL"}, {"measurement": "Activity", "setting": "Mus musculus [2]", "result": 2.86, "unit": "cmH2O/ml"}, {"measurement": "Activity", "setting": "Mus musculus [3]", "result": 3.24, "unit": "cmH2O/ml"}, {"measurement": "Activity", "setting": "Mus musculus [4]", "result": 4.89, "unit": "cmH2O/ml"}, {"measurement": "Activity", "setting": "Mus musculus [5]", "result": 5.61, "unit": "cmH2O/ml"}, {"measurement": "Activity", "setting": "Mus musculus [6]", "result": 5.76, "unit": "cmH2O/ml"}]}, {"smiles": "CC(C)=CCC[C@](C)(O[C@@H]1O[C@H](CO)[C@@H](O)[C@H](O)[C@H]1O)[C@H]1CC[C@]2(C)[C@@H]1C(=O)C[C@@H]1[C@@]3(C)CC[C@H](O)C(C)(C)[C@@H]3CC[C@]12C", "values": [{"measurement": "Activity", "setting": "Mus musculus [1]", "result": 1237.11, "unit": "ng/mL"}, {"measurement": "Activity", "setting": "Mus musculus [2]", "result": 2.18, "unit": "cmH2O/ml"}, {"measurement": "Activity", "setting": "Mus musculus [3]", "result": 3.13, "unit": "cmH2O/ml"}, {"measurement": "Activity", "setting": "Mus musculus [4]", "result": 4.65, "unit": "cmH2O/ml"}, {"measurement": "Activity", "setting": "Mus musculus [5]", "result": 5.9, "unit": "cmH2O/ml"}, {"measurement": "Activity", "setting": "Mus musculus [6]", "result": 6.79, "unit": "cmH2O/ml"}]}, {"smiles": "CC(=O)OCC(=O)[C@@]1(O)[C@H](C)C[C@H]2[C@@H]3CCC4=CC(=O)C=C[C@]4(C)[C@@]3(F)[C@@H](O)C[C@@]21C", "note": "[DEXAMETHASONE ACETATE]", "values": [{"measurement": "Activity", "setting": "Mus musculus [7]", "result": 1131.05, "unit": "ng/mL"}, {"measurement": "Activity", "setting": "Mus musculus [8]", "result": 2.89, "unit": "cmH2O/ml"}, {"measurement": "Activity", "setting": "Mus musculus [9]", "result": 3.09, "unit": "cmH2O/ml"}, {"measurement": "Activity", "setting": "Mus musculus [10]", "result": 3.36, "unit": "cmH2O/ml"}, {"measurement": "Activity", "setting": "Mus musculus [11]", "result": 3.04, "unit": "cmH2O/ml"}, {"measurement": "Activity", "setting": "Mus musculus [12]", "result": 3.06, "unit": "cmH2O/ml"}]}]}
